Patent US5536847A, “4-desoxy-4-epipodophyllotoxin derivative or pharmaceutically acceptable salt thereof” (Taiho Pharmaceutical Co. Ltd., priority 1991, dated 1996)
Like-named read-outs stand apart in the source and are kept apart here.

Legend:
[1] = tested on: P388 mouse leukemia cell line; assay: Cytocidal effect on P388 mouse leukemia cells (crystal violet cytometry); format: cell-based; conditions: read-out: ED50 (concentration causing a 50% decrease in cell count as compared with the control)
Description: A 96-well plate was inoculated with 1×10^3 cells/well of P388 mouse leukemia cell line and incubated for 24 hours. The test compound was dissolved in dimethylformamide and the solution was diluted with medium to various concentrations and added to respective wells. The plate was further incubated for 3 days, after which it was fixed with glutaraldehyde and stained with crystal violet for cytometry. The cytocidal effect of each compound was expressed as the concentration causing a 50% decrease in cell count (ED50) as compared with the control.

[2] = tested on: L1210 mouse leukemia cell line; assay: Life-prolonging effect in CDF1 mice intraperitoneally transplanted with L1210 leukemia; format: in vivo; conditions: 5 days, L1210, male CDF1 mice, vs vehicle group
Description: L1210 mouse leukemia cell line, 1×10^5 cells/mouse, was intraperitoneally transplanted into 7-weeks-old male CDF1 mice (6 per group). The test compound, in the varying amounts shown below in Table 4, was dissolved in physiological saline containing 3.5% of dimethyl sulfoxide and 6.5% of Tween 80 and the solution was intraperitoneally administered for 5 days following the transplantation of cells for a total of 5 times. The percent life-prolonging effect of the compound was determined by comparison with a group given physiological saline containing 3.5% of dimethyl sulfoxide and 6.5% of Tween 80 only.

[3] = background art statement; cited from earlier work
[4] = 72 h, P388 mouse leukemia cells, 1×10^3 cells/well, 3 days incubation with compound

Structure (SMILES)	IC50 ([1]; Mus musculus, P388, 72 h) [nM]	further results
COc1cc(C2c3cc4c(cc3C(CC=O)C3COC(=O)C23)OCO4)cc(OC)c1OC(=O)OCc1ccccc1 (stereo not drawn) [Compound 3, 4-desoxy-4'-demethyl-4'-O-benzyloxycarbonyl-4-formylmethyl-4-epipodophyllotoxin]	450	–
COc1cc(C2c3cc4c(cc3C(CC=O)C3COC(=O)C23)OCO4)cc(OC)c1O (stereo not drawn) [Compound 5, 4-desoxy-4'-demethyl-4-formylmethyl-4-epipodophyllotoxin]	120	–
COc1cc(C2c3cc4c(cc3C(CCCN(C)C)C3COC(=O)C23)OCO4)cc(OC)c1O (stereo not drawn) [Compound 28, 4-desoxy-4'-demethyl-4-(3-N,N-dimethylamino-1-propyl)-4-epipodophyllotoxin]	12	–
COc1cc(C2c3cc4c(cc3C(CCN(C)N(C)C)C3COC(=O)C23)OCO4)cc(OC)c1O (stereo not drawn) [Compound 33]	20	–
COc1cc(C2c3cc4c(cc3C(CCN3CCN(C)CC3)C3COC(=O)C23)OCO4)cc(OC)c1O (stereo not drawn) [Compound 34]	3	–
COc1cc(C2c3cc4c(cc3C(CCN(C)CCN(C)C)C3COC(=O)C23)OCO4)cc(OC)c1O (stereo not drawn) [Compound 35]	–	IC50 [1, 4]: 1 nM
COc1cc(C2c3cc4c(cc3C(CCN3CCOCC3)C3COC(=O)C23)OCO4)cc(OC)c1O (stereo not drawn) [Compound 36]	–	Life-prolonging effect ([2]; 10 mg/kg/day i.p.): 81%
CCCCCCN(C)CCC1c2cc3c(cc2C(c2cc(OC)c(O)c(OC)c2)C2C(=O)OCC12)OCO3 (stereo not drawn) [Compound 38]	19	–
COc1cc(C2c3cc4c(cc3C(CCN(C)CCN3CCCCC3)C3COC(=O)C23)OCO4)cc(OC)c1O (stereo not drawn) [Compound 43]	4.1	Life-prolonging effect ([2]; 5 mg/kg/day i.p.): 257%
COc1cc(C2c3cc4c(cc3C(CCN3CCCCC3)C3COC(=O)C23)OCO4)cc(OC)c1O (stereo not drawn) [Compound 44]	12	–
COc1cc(C2c3cc4c(cc3C(CCN3CCC(N5CCCCC5)CC3)C3COC(=O)C23)OCO4)cc(OC)c1O (stereo not drawn) [Compound 45]	3.3	Life-prolonging effect ([2]; 2.5 mg/kg/day i.p.): 231%
CCN(CC)CCN(C)CCC1c2cc3c(cc2C(c2cc(OC)c(O)c(OC)c2)C2C(=O)OCC12)OCO3 (stereo not drawn) [Compound 47]	–	IC50 [1, 4]: 6.3 nM
COc1cc(C2c3cc4c(cc3C(CCNCCN(C)C)C3COC(=O)C23)OCO4)cc(OC)c1O (stereo not drawn) [Compound 52]	40	–
COc1cc(C2c3cc4c(cc3C(CCN(C)N3CCN(C)CC3)C3COC(=O)C23)OCO4)cc(OC)c1O (stereo not drawn) [Compound 53]	4.3	–
COc1cc([C@@H]2c3cc4c(cc3[C@@H](O[C@@H]3O[C@@H]5CO[C@@H](C)O[C@H]5[C@H](O)[C@H]3O)[C@H]3COC(=O)[C@H]23)OCO4)cc(OC)c1O [etoposide]	–	serious adverse reactions [3]: may cause serious adverse reactions including leukopenia, thrombopenia, alopecia, nausea and vomiting
COc1cc([C@@H]2c3cc4c(cc3[C@@H](O[C@@H]3O[C@@H]5CO[C@@H](c6cccs6)O[C@H]5[C@H](O)[C@H]3O)[C@H]3COC(=O)[C@H]23)OCO4)cc(OC)c1O [teniposide]	–	serious adverse reactions [3]: may cause serious adverse reactions including leukopenia, thrombopenia, alopecia, nausea and vomiting
